Source: patent publication US4740505A, “Pyridazinyloxy (or thio) phenyl phosphates” (priority 1985, dated 1988)
Like-named read-outs stand apart in the source and are kept apart here.

Tests used:
[1] = system: Spodoptera litura; assay: Effectiveness on Spodoptera litura (mortality of 3rd instar larvae on sprayed soybean leaves); type: in vivo
Method: Effectiveness of Spondoptera litura
Each of the test compounds listed in the following table is processed into an emulsifiable concentrate in accordance with the formulation of Example 6. The emulsifiable concentrate is diluted with water (Dyne®, a spreading agent produced by Takeda Chemical Ind. Ltd., as diluted 3,000-fold) to prepare a 100 ppm aqueous solution.
Using a spray gun (nozzle pressure of 1 kg/cm^2 gauge), 20 ml of the aqueous 100 ppm solution is sprayed over soybean seedlings in a spraying chamber (on 10th day after germination) which have been raised in jiffy pots (6 cm in diameter). Two main leaves are respectively cut off from the seedlings 2 hours and 6 days after the spraying. Each of the leaves is put into an ice cream cup (diameter: 6 cm, depth: 4 cm), and 10 larvae of Spodoptera litura at the 3rd instar are put into each of the cups. The cups are left in a room at 25° C.; after 48 hours, dead larvae are counted. The test is repeated two times. The results are shown in terms of mortality (%) in Table 6. [formula]
The following compounds are used for controls.
The same compounds are used for controls also in the following Test Examples.

[2] = system: Tetranychus urticae; assay: Effectiveness on Tetranychus urticae (rating of effects on kidney bean seedlings); type: in vivo; conditions: 500 ppm, 20 ml, rating based on percent decrease; for Rating of effect Day-2: 2nd day after treatment; for Rating of effect Day-7: 7th day after treatment
Method: Effectiveness on Tetranychus urticae
Each of the compounds listed in the following table is processed into an emulsifiable concentrate in accordance with the formulation of Example 6. The emulsifiable concentrate is diluted with water (Dyne®, a spreading agent produced by Takeda Chemical Ind. Ltd., as diluted 3,000-fold) to prepare a 500 ppm aqueous solution. Ten female adult of Tetranychus urticae are put into each kidney been seedling raised in a jiffy pot (6 cm in diameter), and left in a glass house at 28° C. for 24 hours. Each pot is taken out of the glass house; 20 ml of the aqueous solution as prepared above is spread over each kidney bean seedling. The jiffy pots are laid in the glass house again. Larvae and adult which are alive on the leaves are counted at the 2nd and 7th days after the spreading treatment. The test is repeated two times. The degrees are determined on the basis of percent decrease.

[3] = Toxicological test: oral acute toxicity in mice; set-up: species or system mice (ddY-SLC strained male); conditions: mouse, in vivo, five-week aged ddY-SLC male mice
[4] = 100 ppm spray, leaves cut 6 days after spraying, dead larvae counted after 48 hours, 25° C., read-out: Mortality 6th day after spraying
[5] = 48 h, read-out: Mortality 2 hours after spraying
[6] = 100 ppm spray, leaves cut 2 hours after spraying, dead larvae counted after 48 hours, 25° C., read-out: Mortality 2 hours after spraying

SMILES	mortality at 100 ppm [1, 4] [%]	mortality at 100 ppm [1, 5] [%]	Rating of effect Day-2 [2]	Rating of effect Day-7 [2]	LD50 [3] [mg/kg]	mortality at 100 ppm ([1]; 48 h, read-out: Mortality 6th day after spraying) [%]	mortality at 100 ppm [1, 6] [%]
CCCSP(=O)(OCC)Oc1ccc(Oc2ccc(Cl)nn2)cc1 (stereo not drawn) [Compound No. 2, O-Ethyl-S-n-propyl-O-[4-(3-chloropyridazinyl-6-oxy)phenyl]phosphorothioate]	100	100	3 (≥90)	3 (≥90)			
CCCSP(=S)(OCC)Oc1ccc(Oc2ccc(Cl)nn2)cc1 (stereo not drawn) [Compound No. 3]	90	100	3 (≥90)	3 (≥90)	~300		
CCCSP(=O)(OCC)Oc1ccc(Sc2ccc(Cl)nn2)cc1 (stereo not drawn) [Compound No. 4]	95	100	3 (≥90)	3 (≥90)	> 300		
CCCSP(=O)(OCC)Oc1cccc(Oc2ccc(N(C)C)nn2)c1 (stereo not drawn) [Compound No. 21, O-Ethyl-S-n-propyl-O-[3-(3-dimethylaminopyridazinyl-6-oxy)phenyl]phosphorothioate]	100	100	3 (≥90)	3 (≥90)			
CCC(C)SP(=O)(OC)Oc1ccccc1Oc1ccc(Cl)nn1 (stereo not drawn) [Compound No. 27, O-Methyl-S-sec-butyl-O-[2-(3-chloropyridazinyl-6-oxy)phenyl]phosphorothioate]	100	100	3 (≥90)	3 (≥90)			
CCCSP(=O)(OCC)Oc1ccccc1Oc1ccc(Cl)nn1 (stereo not drawn) [Compound No. 29, O-Ethyl-S-n-propyl-O-[2-(3-chloropyridazinyl-6-oxy)phenyl]phosphorothioate]		100	3 (≥90)	3 (≥90)		90	
CCCSP(=S)(OCC)Oc1ccccc1Oc1ccc(Cl)nn1 (stereo not drawn) [Compound No. 30, O-Ethyl-S-n-propyl-O-[2-(3-chloropyridazinyl-6-oxy)phenyl]phosphorodithioate]	100	100	3 (≥90)	3 (≥90)	> 300		
CCCSP(=S)(OCC)Oc1ccccc1Sc1ccc(Cl)nn1 (stereo not drawn) [Compound No. 32, O-Ethyl-S-n-propyl-O-[2-(3-chloropyridazinyl-6-thio)phenyl]phosphorodithioate]			3 (≥90)	3 (≥90)	> 300		
CCCSP(=O)(OCC)Oc1ccccc1Oc1ccc(OC)nn1 (stereo not drawn) [Compound No. 39, O-Ethyl-S-n-propyl-O-[2-(3-methoxypyridazinyl-6-oxy)phenyl]phosphorothioate]	100	100	3 (≥90)	3 (≥90)	~300		
COP(=S)(OC)Oc1ccc([N+](=O)[O-])c(C)c1 [Fenitrothion, reference compound]	0		3 (≥90)	0 (≤20)			80
CCCSP(=S)(OCC)Oc1ccc(Cl)cc1Cl (stereo not drawn) [Prothiophos, reference compound]	10		3 (≥90)	0 (≤20)			100
CCCSP(=O)(OCC)Oc1ccc(Oc2cccnn2)cc1 (stereo not drawn) [compound 1]	90	100	3 (≥90)	3 (≥90)			
CCCSP(=S)(OCC)Oc1ccc(Sc2ccc(Cl)nn2)cc1 (stereo not drawn) [compound 5]			3 (≥90)	3 (≥90)	> 300		
CCCSP(=O)(OCC)Oc1ccc(Oc2ccc(N(C)C)nn2)cc1 (stereo not drawn) [compound 6]	90	100					
CCCSP(=S)(OCC)Oc1ccc(Oc2ccc(N(C)C)nn2)cc1 (stereo not drawn) [compound 7]					> 300		
CCCSP(=O)(OCC)Oc1ccc(Sc2ccc(N(C)C)nn2)cc1 (stereo not drawn) [compound 8]			3 (≥90)	3 (≥90)	~300		
CCCSP(=S)(OCC)Oc1ccc(Sc2ccc(N(C)C)nn2)cc1 (stereo not drawn) [compound 9]			3 (≥90)	3 (≥90)	> 300		

SMILES	mortality at 100 ppm [1, 4] [%]	mortality at 100 ppm [1, 5] [%]	Rating of effect Day-2 [2]	Rating of effect Day-7 [2]	LD50 [3] [mg/kg]	mortality at 100 ppm ([1]; 48 h, read-out: Mortality 6th day after spraying) [%]	mortality at 100 ppm [1, 6] [%]
CCCSP(=S)(OCC)Oc1ccc(Oc2ccc(NC(C)CC)nn2)cc1 (stereo not drawn) [compound 10]					> 300		
CCCSP(=O)(OCC)Oc1ccc(Sc2ccc(NC(C)CC)nn2)cc1 (stereo not drawn) [compound 11]					> 300		
CCCSP(=S)(OCC)Oc1ccc(Sc2ccc(NC(C)CC)nn2)cc1 (stereo not drawn) [compound 12]					> 300		
CCCSP(=O)(OCC)Oc1ccc(Oc2ccc(N(C(C)=O)C(C)CC)nn2)cc1 (stereo not drawn) [compound 13]			3 (≥90)	3 (≥90)			
CCC(C)SP(=O)(OC)Oc1ccc(Oc2ccc(Cl)nn2)c(C)c1 (stereo not drawn) [compound 14]			3 (≥90)	3 (≥90)			
CCCSP(=O)(OCC)Oc1ccc(Oc2ccc(Cl)nn2)c(C)c1 (stereo not drawn) [compound 15]	100	100	3 (≥90)	3 (≥90)			
CCCSP(=O)(OCC)Oc1cccc(Oc2cccnn2)c1 (stereo not drawn) [compound 17]	100	100	3 (≥90)	3 (≥90)			
CCCSP(=O)(OCC)Oc1cccc(Oc2ccc(NC(C)CC)nn2)c1 (stereo not drawn) [compound 22]	100	100					
CCC(C)SP(=O)(OC)Oc1ccccc1Sc1ccc(Cl)nn1 (stereo not drawn) [compound 28]	95	100	3 (≥90)	3 (≥90)			
CCCSP(=O)(OCC)Oc1ccccc1Sc1ccc(Cl)nn1 (stereo not drawn) [compound 31]			3 (≥90)	3 (≥90)	> 300		
CCOP(=O)(Oc1ccccc1Oc1ccc(Cl)nn1)SC(C)C (stereo not drawn) [compound 33]					> 300		
CCOP(=O)(Oc1ccccc1Oc1ccc(Cl)nn1)SC(C)CC (stereo not drawn) [compound 36]	100	100					
CCCSP(=O)(OCC)Oc1ccccc1Oc1ccc(C)nn1 (stereo not drawn) [compound 37]			3 (≥90)	3 (≥90)			
CCCSP(=O)(OCC)Oc1ccccc1Oc1ccc(N)nn1 (stereo not drawn) [compound 43]			3 (≥90)	3 (≥90)			
CCCSP(=S)(OCC)Oc1ccccc1Oc1ccc(N)nn1 (stereo not drawn) [compound 44]			3 (≥90)	3 (≥90)	> 300		
CCCSP(=O)(OCC)Oc1ccccc1Sc1ccc(N(C)C)nn1 (stereo not drawn) [compound 45]			3 (≥90)	3 (≥90)			
CCCSP(=S)(OCC)Oc1ccccc1Sc1ccc(NC(C)CC)nn1 (stereo not drawn) [compound 46]			3 (≥90)	3 (≥90)	> 300		
